Experimental data from patent publication US20220193209A1, “COMPOSITIONS AND METHODS FOR REACTIVATING LATENT IMMUNODEFICIENCY VIRUS AND/OR TREATING IMMUNODEFICIENCY VIRUS INFECTION” (The J. David Gladstone institutes, a testamentary trust …, priority 2019, published 2022).

Target: T1, FOXO3 (Homo sapiens, UniProt O43524)
T1 construct: performed against the FOXO isoforms expressed in K562 cells; endogenous in cells; host or cells: K562
Experiment: Cellular Thermal Shift Assay (CETSA) in K562 cells, FOXO3
Assay type: binding
Settings: 1 μM
Description: K562 cells (ATCC) were maintained in appropriate volume of RPMI medium supplemented with 10% fetal bovine serum (Serum Plus—II, Sigma MO, USA), 100 units/mL penicillin and 100 […] (Corning, VA, USA). Short-term passages (<15) were used for all experiments. For CETSA, K562 cell were freshly seeded the day before the experiment. The day of experiment, equal numbers of cells were counted by Moxi Mini automated cell counter (Orflo) and 0.6×10^6 cells per data point were seeded in T-25 cell culture flasks (VWR, PA, USA) in appropriate volume of culture medium. Cells were exposed to […] AS1842856 or equal volume DMSO for 3 hours in an incubator with 5% CO2 and 37° C. […] The supernatants were transferred to new microcentrifuge tubes and analyzed by SDS-PAGE followed by immunoblotting analysis. […] Immunoblotting results were subjected to densitometric analysis (Image J) and melting temperatures of FOXO1, FOXO3 and FOXO4 were determined by Prism 7 (GraphPad) using nonlinear least-squares regression fit to Y=100/(1+10^(Log IC50−X)*H), where H=Hill slope (variable). The viability of the cells was assessed in triplicate by trypan blue exclusion. […]
Briefly, K562 cells were treated with increasing concentrations of the FOXO1 inhibitor AS1842856 just after HIVGKO infection. After 3-4 days, the percentage of latent cells and productive cells were quantified by FACS. […]

T1 sequence (O43524 whole entry, canonical isoform): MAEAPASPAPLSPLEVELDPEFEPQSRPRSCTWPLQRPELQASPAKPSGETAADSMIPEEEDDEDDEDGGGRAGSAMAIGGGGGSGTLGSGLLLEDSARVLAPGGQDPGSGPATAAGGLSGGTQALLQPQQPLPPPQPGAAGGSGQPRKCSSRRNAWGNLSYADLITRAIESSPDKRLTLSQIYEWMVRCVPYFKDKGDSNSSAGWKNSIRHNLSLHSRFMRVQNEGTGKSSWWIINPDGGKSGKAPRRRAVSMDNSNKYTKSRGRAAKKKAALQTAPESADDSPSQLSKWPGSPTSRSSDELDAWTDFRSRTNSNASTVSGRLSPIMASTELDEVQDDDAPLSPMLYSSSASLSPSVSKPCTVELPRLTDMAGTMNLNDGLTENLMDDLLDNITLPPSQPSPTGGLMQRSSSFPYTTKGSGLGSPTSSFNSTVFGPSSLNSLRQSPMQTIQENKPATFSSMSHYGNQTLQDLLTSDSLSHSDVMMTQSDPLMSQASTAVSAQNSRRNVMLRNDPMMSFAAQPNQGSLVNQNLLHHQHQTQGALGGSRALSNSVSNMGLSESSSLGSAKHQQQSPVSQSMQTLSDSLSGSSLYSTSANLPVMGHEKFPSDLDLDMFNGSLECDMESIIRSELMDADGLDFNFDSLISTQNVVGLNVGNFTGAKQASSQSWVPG

CCn1cc(C(=O)O)c(=O)c2c(N)c(F)c(NC3CCCCC3)cc21 [AS1842856, 5-amino-7-(cyclohexylamino)-1-ethyl-6-fluoro-4-oxo-1,4-dihydro-quinoline-3-carboxylic acid]
change in FOXO3 melting curve: no changes
